Laboratory results: patent publication US6608070B1, “2,3-substituted indole compounds as anti-inflammatory and analgesic agents” (priority 1999, dated 2003)

Row | melting point [°C] | SMILES
1 | 235 to 238 | Cc1ccc(C(=O)c2[nH]c3cc(Cl)ccc3c2CC(=O)O)nc1 [Example 32, [6-Chloro-2-(5-methylpyridine-2-carbonyl)-1H-indol-3-yl]acetic Acid]
2 | 227 to 228 | CC(C)c1ccnc(C(=O)c2[nH]c3ccc(Cl)cc3c2CC(=O)O)c1 [Example 64, [5-Chloro-2-(4-isopropylpyridine-2-carbonyl)-1H-indol-3-yl]acetic Acid]
